Experiment: Skin absorption after topical application to a hand, disappearance of red color
Format: in vivo, human

## CO[C@H]1/C=C/O[C@@]2(C)Oc3c(C)c(O)c4c(O)c(c(/C=N/N5CCN(C)CC5)c(O)c4c3C2=O)NC(=O)/C(C)=C\C=C\[C@H](C)[C@H](O)[C@@H](C)[C@@H](O)[C@@H](C)[C@H](OC(C)=O)[C@@H]1C [rifampicin]
  Time until absorbed in skin tissue (red color disappeared): 1 to 2 h
